# Assay results taken from patent US20230346727A1, “COMPOUNDS FOR THE TREATMENT OF HEMOPHILIA” (UNIVERSITE GRENOBLE ALPES, priority 2020, published 2023).
# How the values were obtained:
# [1] = test system: plasma from the hemophiliac patient (hemophiliac patient A); test: Second ex vivo thrombin generation test (CAT analyzer, PPP Reagent LOW); assay type: biochemical, human; details: for Amount of thrombin at the maximum of the peak, normalized to the thrombin peak obtained with adapalene: 50 μM final in plasma (positive control: factor VIII 1 IU/mL), HEPES buffer, negative control 0.13 ± 0.02; for peak of generated thrombin compared to negative and positive control, in words: 50 μM final in plasma
# Procedure: A second thrombin generation test is carried out, for the compounds H27, H31, H32, H35, H38, H39 and the compound H24.
# The thrombin generation test was carried out at 37° C. using a CAT analyzer (Diagnostica Stago) with the PPP Reagent LOW reagent (Diagnostica Stago) in accordance with the manufacturer's instructions and according to the method established by Pr. Hemker in 2003. PPP Reagent LOW is a mixture of tissue factor (TF) 1 pM with phospholipid vesicles (PL, 4 μM). The test is triggered by the addition of a mixture of calcium+fluorescent substrate (ZGGR-AMC) (FluCa mixture).
# From a technical point of view, 80 μL of surcharged plasma sample is added to 20 μL of «initiator complex» (PPP Reagent LOW) and incubated for 10 min at 37° C. Then, the reaction is triggered by adding 20 μL of FluCa (mixture of CaCl2 and ZGGR-AMC substrate) and the fluorescence signal is measured over time. Each test is performed in triplicate.
# For each tested molecule, 247 μL of plasma from the hemophiliac patient were surcharged with 13 μL of a solution containing different amounts of compound (molecule to be tested, factor VIII or dilution buffer) to obtain the desired final concentration (systematic dilution of the molecule to be tested in the plasma at 1/20). For example, to obtain the final concentration of 50 μM in plasma, 13 μL of a 1 mM solution was added to 247 μL of plasma. In parallel with the tests on the different chemical compounds, the plasma of a hemophiliac patient is surcharged with the same buffer for diluting the compound, an 8% solution of dimethyl sulfoxide (DMSO), as a negative control (0.4% of final DMSO) in order to obtain the basal level of thrombin generation of the used plasma. The positive control is the same plasma surcharged with plasma factor VIII (Factane, LFB, France) at a concentration of 1 IU/mL (or 100% factor VIII) in order to obtain the expected «normal» level of thrombin generation used plasma.
# For this example, solutions of adapalene and 1 mM compounds were prepared with the buffer (18 mM HEPES, 135 mM NaCl, pH 7.35) instead of water as in Example 1. This modification has made it possible to increase the amount of thrombin generated by the plasma of the hemophiliac patient A in the presence of 50 μM of adapalene.
# Compounds were tested at a final concentration of 50 μM in plasma, and signal was measured over time. The obtained results, expressed as the amount of thrombin measured at the maximum of the peak obtained and normalized to the thrombin peak obtained with adapalene, are shown in Table 1 below: […]
# [2] = test system: plasma from a patient suffering from severe hemophilia A; test: Ex vivo thrombin generation test (STA-Genesia, STG-Bleedscreen reagent); assay type: biochemical, human
# Procedure: The thrombin generation test consists of measuring the kinetics of appearance of this key coagulation factor in the plasma over time. After activation of coagulation by calcium, the amount of thrombin changes over time. It is measured using a synthetic thrombin substrate coupled to a fluorescent molecule (ZGGR-AMC). The main parameters determined are the latency time before observing an increase in thrombin generation, the thrombin peak corresponding to the maximum amount of thrombin generated and the ETP (endogenous thrombin potential) corresponding to the total amount of thrombin generated in plasma during the test. In the case of a patient with hemophilia A, the generation of thrombin is low or even almost zero for some patients. Adding the missing coagulation factor (factor VIII) to its physiological level (1 Ul/mL or 100%) restores coagulation in patients and recovers a «normal» thrombin generation. Thus, the thrombin generation test makes it possible to globally evaluate the coagulation rate of a given plasma and in the present case, it makes it possible to evaluate the capacity of a molecule to restore or not restore coagulation in a hemophiliac patient.
# For this example, several ex vivo thrombin generation tests were carried out on plasma from a patient suffering from severe hemophilia A, therefore devoid of factor FVIII, in order to evaluate the effect on coagulation of a compound of general formula (I), more particularly adapalene, of formula (V) above, on the kinetics and the generated amount of thrombin.
# Hemophiliac patient plasma was obtained from Cryopep company (Montpellier, France).
# Adapalene is commercially available, in particular from Prestwick company. It was dissolved in an 8% dimethylsulfoxide (DMSO) solution then diluted to a concentration of 1 mM and then tested at the following concentrations: 50 μM, 5 μM, 0.5 μM (final concentrations in plasma).
# The thrombin generation test was performed at 37° C. using a fully automated STA-Genesia analyzer (Diagnostica Stago) with STG®-Bleedscreen reagent (Diagnostica Stago) according to the manufacturer's instructions and according to the method established by Pr. Hemker in 2003. The STG®-Bleedscreen reagent is a mixture of tissue factor (TF) at low concentration with phospholipid vesicles (PL). The test is triggered by the addition of a mixture of calcium+fluorescent substrate (ZGGR-AMC) (STG®-FluoStart mixture).
# From a technical point of view, 4 volumes of surcharged plasma sample are added to 1 volume of «initiator complex» (STG®-Bleedscreen) and incubated for 10 min at 37° C. Then, the reaction is triggered by adding 1 volume of STG®-FluoStart (mixture of CaCl2 and ZGGR-AMC substrate) and the fluorescence signal is measured over time. Each test is performed in duplicate
# For each tested molecule, 475 μL of plasma from the hemophiliac patient were surcharged with 25 μL of a solution containing different amounts of compound (molecule to be tested, factor VIII or dilution buffer) to obtain the desired final concentration (systematic dilution of the molecule to be tested in the plasma at 1/20). For example, to obtain the final concentration of 50 μM in plasma, 25 μL of a 1 mM solution was added to 475 μL of plasma. The preparation of 500 μL of surcharged plasma allows to perform the 2 thrombin generation tests (duplicate), the 2 calibration tests (duplicate) and takes into account the dead volume of the automaton.
# In parallel with the tests on the different chemical compounds, the plasma of a hemophiliac patient is surcharged with the same buffer for diluting the compound, an 8% solution of dimethylsulfoxide (DMSO), as a negative control (0.4% of final DMSO) in order to obtain the basal level of thrombin generation of the used plasma. The positive control is the same plasma surcharged with plasma factor VIII (Factane, LFB, France) at a concentration of 1 IU/mL (or 100% factor VIII) in order to obtain the expected «normal» level of used thrombin generation plasma. […]
# [3] = biological target: T1, FXa inhibition by TFPI-K1K2 (truncated human TFPI) (Homo sapiens, UniProt P10646, F53G); test: FXa activity assay: release of FXa inhibition by TFPI-K1K2 (colorimetric, PNAPEP-1025); assay type: biochemical; details: 50 μM, TFPI-K1K2 30 nM, FXa 0.5 nM
# T1 sequence (P10646 29-182 F53G): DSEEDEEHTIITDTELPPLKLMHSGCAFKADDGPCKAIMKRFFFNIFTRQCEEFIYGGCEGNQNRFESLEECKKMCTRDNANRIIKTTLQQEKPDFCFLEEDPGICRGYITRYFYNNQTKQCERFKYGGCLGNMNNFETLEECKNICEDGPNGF
# Procedure: The ability of adapalene to reverse FXa inhibition by TFPI was assessed by using a low TFPI concentration FXa activity assay. For this test, a truncated human TFPI (TFPI-K1K2) was used, which is common to both TFPI isoforms α and β, having the amino acid sequence SEQ ID No 1:
# Adapalene was tested for its ability to release FXa inhibition by TFPI-K1K2 using a colorimetric assay in a 96-well plate format. All steps were performed at room temperature. FXa inhibition by increasing TFPI-K1K2 concentrations was first analyzed to determine the best detection conditions. […]
# Briefly, 14.5 μL of 350 μM adapalene, prediluted in the buffer described above, was added to 62.5 μL 50 nM TFPI-K1K2 and mixed together by aspiration/dispensing. After 10 min of incubation at room temperature, 6.25 μL of 8 nM FXa was added, the mixture was mixed again, and the activity of uninhibited FXa was quantified by the addition of 18 μL of PNAPEP-1025 (Cryopep), an FXa substrate, diluted to 2 mM in H2O. […]
# The plates were centrifuged to remove any bubbles and the optical density (OD) at 405 nm, corresponding to the hydrolysis of the PNAPEP-1025 substrate, was measured for 1 h at room temperature. The absorbance value at t0, corresponding to an absorbance of 0.05, was subtracted and the […] restoration value was reported as a percentage of the positive control.
# [4] = adapalene 0.5 μM final in severe hemophilia A plasma
# [5] = adapalene 5 μM final in severe hemophilia A plasma
# [6] = adapalene 50 μM final in severe hemophilia A plasma
Structure (SMILES),"Amount of thrombin at the maximum of the peak, normalized to the thrombin peak obtained with adapalene [1]","peak of generated thrombin compared to negative and positive control, in words [1]",other results
"COc1ccc(-c2ccc(C(=O)NCC(=O)O)cc2)cc1C12CC3CC(CC(C3)C1)C2 [Compound H24, 2-(3′-(adamantan-1-yl)-4′-methoxy-[1,1′-biphenyl]-4-ylcarboxamido)acetic acid]",0.23,,
"COc1ccc(N2CCc3cc(C(=O)O)ccc3C2)cc1C12CC3CC(CC(C3)C1)C2 [Compound H27, 2-(3-(adamantan-1-yl)-4-methoxyphenyl)-1,2,3,4-tetrahydroisoquinoline-6 carboxylic acid]",0.51,,
"COc1ccc(-c2ccc3nc(C(=O)O)ccc3c2)cc1C12CC3CC(CC(C3)C1)C2 [Compound H31, 6-(3-(adamantan-1-yl)-4-m2thoxyph2nyl)quinoline-2-carboxylic acid]",0.62,,
"COc1ccc(-c2ccc3cc(C(=O)O)cnc3c2)cc1C12CC3CC(CC(C3)C1)C2 [Compound H32, 7-(3-(adamantan-1-yl)-4-methoxyphenyl)quinoline-3-carboxylic acid]",0.55,,
"C#CCOc1ccc(-c2ccc3cc(C(=O)O)ccc3c2)cc1C12CC3CC(CC(C3)C1)C2 [Compound H35, 6-(3-(adamantan-1-yl)-4-(prop-2-yn-1-yloxy)phenyl)-2-naphthoic acid]",0.53,,
"COc1ccc(-c2ccc3cc(C(=O)O)cc(O)c3c2)cc1C12CC3CC(CC(C3)C1)C2 [Compound H38, 6-(3-(adamantan-1-yl)-4-methoxyphenyl)-4-hydroxy-2-naphthoic acid]",0.96,much higher,
"COc1ccc(-c2ccc3cc(CS(=O)(=O)O)ccc3c2)cc1C12CC3CC(CC(C3)C1)C2 [Compound H39, (6-(3-(adamantan-1-yl)-4-methoxyphenyl)naphthalen-2-yl)methanesulfonic acid]",1.22,much higher,
"COc1ccc(-c2ccc3cc(C(=O)O)ccc3c2)cc1C12C[C@H]3C[C@@H](C1)C[C@@H](C2)C3 [adapalene, 6-[3-(1-adamantyl)-4-methoxyphenyl]naphthalene-2-carboxylic acid]",1,much higher,"generation of thrombin (peak and ETP) compared to negative and positive control, in words ([2]; 50 μM in severe hemophilia A plasma, FIG. 3 and FIG. 4): increase in the generation of thrombin compared to the negative control; ETP (endogenous thrombin potential) [2, 4]: 455 nM·min; thrombin peak [2, 4]: 29.7 nM; ETP (endogenous thrombin potential) [2, 5]: 504 nM·min; thrombin peak [2, 5]: 39 nM; ETP (endogenous thrombin potential) [2, 6]: 588 nM·min; thrombin peak [2, 6]: 55 nM; coagulation restoration percentage (percentage of the positive control) [3]: approximately 14%; optical density (OD) at 405 nm, hydrolysis of PNAPEP-1025 by uninhibited FXa ([3]; negative control OD 0.048, positive control OD 0.406): 0.105"
